Assays:
Format in all cases: cell-based
E. faecalis = experiment: Bacteriostatic screening (growth, OD630) against E. faecalis; settings: for IC50: 24 h, IC50 generated when inhibition at 250 μM was higher than 80%
Experimental: (§1) The strategy in this study was to submit these synthesized compounds to a preliminary screening test against E. coli, S. aureus and E. faecalis (ciprofloxacin was used as a reference compound; see Table 1). […] The tested compound or ciprofloxacin (positive drug) was dissolved in DMSO and diluted with LB liquid medium into a stock solution containing 20% DMSO before use; the stock solution of the carrier was 20% DMSO in LB liquid medium. All the experiments, including blank controls, were performed in triplicate. Bacteriostatic screening was performed by applying a modified protocol of the National Committee on Clinical Laboratory Standards (NCCLS).[29] Briefly, E. coli, S. aureus and E. faecalis cells (American Type Culture Collection, ATCC) were grown in LB plate medium for one passage, then seeded in LB liquid medium and cultured at 37 °C for 12 h. After being diluted 1000 times, 190 μL diluted cells were aliquoted to 96-well plates; then, 10 μL stock solution of carrier or a gradient amount of the tested compound or the positive compound, ciprofloxacin, were added; the final concentration of DMSO was 1% in all wells. The blank controls contained 1% DMSO and LB medium but no bacterial cells.

E. coli = experiment: Bacteriostatic screening (growth, OD630) against E. coli; settings: for inhibition rate EC (symbol /): at 250 μM of tested compound
Experimental: as §1

S. aureus = experiment: Bacteriostatic screening (growth, OD630) against S. aureus; settings: for inhibition rate SA (symbol /): at 250 μM of tested compound
Experimental: as §1

[1] = at 250 μM of the tested compound
[2] = at 250 μM of the tested compound, 250 µM

Molecule | IC50 (E. faecalis) [µM] | inhibition rate (%) EC (E. coli; [1]) | inhibition rate (%) SA (S. aureus; [1]) | inhibition rate EC (symbol /) (E. coli) | inhibition rate (%) EF (E. faecalis; [1]) | also measured
C=C1CC[C@H]2[C@@](C)(CCC(=O)[C@@]2(C)CO[Si](C)(C)C(C)(C)C)[C@@H]1C/C=C1/C(=O)OC[C@@H]1Oc1cccc2cccnc12 [8b2, (14β)-(quinolyl-8′-oxy)-3-keto-19-(t-butyldimethylsilyloxy)andrographolide] | – | – | – | – | – | inhibition at 250 µM (E. faecalis; Enterococcus faecalis, at 250 μM of the tested compound, read-out: inhibition rate (%) EF): 71%; inhibition at 250 µM (E. coli; Escherichia coli, at 250 μM of the tested compound, read-out: inhibition rate (%) EC): 25%; inhibition at 250 µM (S. aureus; Staphylococcus aureus, at 250 μM of the tested compound, read-out: inhibition rate (%) SA): 28%
C=C1CCC2C(C)(CO)C(O)CCC2(C)C1CC=C1C(=O)OCC1Oc1ccccc1C(=O)OCC (stereo not drawn) [6a8, (14α)-(2′-Carboxyethyl ester)phenoxy-andrographolide] | 83.3 ± 8.3 | (21) % | (17) % | – | – | –
C=C1CCC2C3(C)COC(C)(C)OC3CCC2(C)C1CC=C1C(=O)OCC1Oc1cccnc1[N+](=O)[O-] (stereo not drawn) [5a15, (14α)-(2′-Nitro-pyridinyl-3′-oxy)-3,19-acetonylidene andrographolide] | 25.5 ± 1.5 | (13) % | – | – | – | inhibition rate (%) SA (S. aureus; [2]): (11) %
C=C1CCC2C(C)(CO)C(O)CCC2(C)C1CC=C1C(=O)OCC1Oc1ccc([N+](=O)[O-])c(F)c1 (stereo not drawn) [6b4, (14β)-(3′-Fluoro-4′-nitro)phenoxy-andrographolide] | 19.6 ± 2.7 | (60) % | (28) % | – | – | –
C=C1CCC2C(C)(CO)C(O)CCC2(C)C1CC=C1C(=O)OCC1Oc1ccccc1OC (stereo not drawn) [6a12, (14α)-(2′-Methoxy)phenoxy-andrographolide] | 75.6 ± 17.8 | – | – | / (“/”represents no inhibition or lower than 10% inhibition rate at 250 μM of tested compound) | – | inhibition rate (%) SA (S. aureus; [2]): (14) %
(14β)-(2′-Carboxy ethyl ester-4′-nitro)phenoxy-andrographolide [6b1] | 27.7 ± 3.5 | (17) % | (40) % | – | – | –
C=C1CCC2C(C)(CO)C(O)CCC2(C)C1CC=C1C(=O)OCC1Oc1cccc2ccccc12 (stereo not drawn) [6b14, (14β)-(Naphthyl-1′-oxy)andrographolide] | – | (35) % | (18) % | – | (50) % | –
(14β)-(4′-Cyano)phenoxy-3,19-acetonylidene andrographolide [5b10] | – | (20) % | (22) % | – | (46) % | –
C=C1CCC2C(C)(CO)C(O)CCC2(C)C1CC=C1C(=O)OCC1Oc1cccc(OC)c1 (stereo not drawn) [6b13, (14β)-(3′-Methoxy)phenoxy-andrographolide] | 138 ± 5.4 | 15% | 13% | – | – | –
(14β)-(2′-Carboxy ethyl ester)phenoxy-3,19-acetonylidene andrographolide [5b8] | – | – | – | / (“/”represents no inhibition or lower than 10% inhibition rate at 250 μM of tested compound) | (22) % | inhibition rate SA (symbol /) (S. aureus): / (“/”represents no inhibition or lower than 10% inhibition rate at 250 μM of tested compound)
C=C1CCC2C3(C)COC(C)(C)OC3CCC2(C)C1CC=C1C(=O)OCC1Oc1ccccc1OC (stereo not drawn) [5b12, (14β)-(2′-Methoxy)phenoxy-3,19-acetonylidene andrographolide] | – | – | (24) % | / (“/”represents no inhibition or lower than 10% inhibition rate at 250 μM of tested compound) | – | inhibition rate (%) EF (E. faecalis; [2]): (52) %
C=C1CCC2C3(C)COC(C)(C)OC3CCC2(C)C1CC=C1C(=O)OCC1Oc1cccc2ccccc12 (stereo not drawn) [5b14, (14β)-(Naphthyl-1′-oxy)-3,19-acetonylidene andrographolide] | – | – | – | / (“/”represents no inhibition or lower than 10% inhibition rate at 250 μM of tested compound) | (47) % | inhibition rate SA (symbol /) (S. aureus): / (“/”represents no inhibition or lower than 10% inhibition rate at 250 μM of tested compound)
C=C1CCC2C(C)(CO)C(O)CCC2(C)C1CC=C1C(=O)OCC1Oc1ccc(C#N)cc1 (stereo not drawn) [6b10, (14β)-(4′-Cyano)phenoxy-andrographolide] | 72.1 ± 9.4 | (39) % | (29) % | – | – | –
C=C1CCC2C(C)(CO)C(O)CCC2(C)C1CC=C1C(=O)OCC1Oc1ccc([N+](=O)[O-])cc1OC (stereo not drawn) [6a3, (14α)-(2′-Methoxy-4′-nitro)phenoxy-andrographolide] | 113 ± 14.3 | – | – | – | – | inhibition rate (%) EC (E. coli; [2]): (31) %; inhibition rate (%) SA (S. aureus; [2]): (17) %
C=C1CCC2C(C)(CO)C(O)CCC2(C)C1CC=C1C(=O)OCC1Oc1ccc([N+](=O)[O-])cc1F (stereo not drawn) [6a2, (14α)-(2′-Fluoro-4′-nitro)phenoxy-andrographolide] | 38.7 ± 4.5 | – | – | – | – | inhibition rate (%) EC (E. coli; [2]): (67) %; inhibition rate (%) SA (S. aureus; [2]): (65) %
C=C1CCC2C3(C)COC(C)(C)OC3CCC2(C)C1CC=C1C(=O)OCC1Oc1ccc(C(=O)OCC)cc1 (stereo not drawn) [5a9, (14α)-(4′-Carboxyethyl ester)phenoxy-3,19-acetonylidene andrographolide] | – | – | (10) % | / (“/”represents no inhibition or lower than 10% inhibition rate at 250 μM of tested compound) | (45) % | –
C=C1CCC2C3(C)COC(C)(C)OC3CCC2(C)C1CC=C1C(=O)OCC1Oc1ccc([N+](=O)[O-])cc1OC (stereo not drawn) [5b3, (14β)-(2′-Methoxy-4′-nitro)phenoxy-3,19-acetonylidene andrographolide] | – | – | – | / (“/”represents no inhibition or lower than 10% inhibition rate at 250 μM of tested compound) | – | inhibition rate (%) EF (E. faecalis; [2]): (19) %; inhibition rate (%) SA (S. aureus; [2]): (16) %
C=C1CCC2C3(C)COC(C)(C)OC3CCC2(C)C1CC=C1C(=O)OCC1Oc1cccc([N+](=O)[O-])c1 (stereo not drawn) [5b7, (14β)-(3′-Nitro)phenoxy-3,19-acetonylidene andrographolide] | – | – | – | / (“/”represents no inhibition or lower than 10% inhibition rate at 250 μM of tested compound) | – | inhibition rate EF (symbol /) (E. faecalis; at 250 μM of tested compound): / (“/”represents no inhibition or lower than 10% inhibition rate at 250 μM of tested compound); inhibition rate SA (symbol /) (S. aureus): / (“/”represents no inhibition or lower than 10% inhibition rate at 250 μM of tested compound)
C=C1CCC2C3(C)COC(C)(C)OC3CCC2(C)C1CC=C1C(=O)OCC1Oc1ccccc1C(=O)OCC (stereo not drawn) [5a8, (14α)-(2′-Carboxyethyl ester)phenoxy-3,19-acetonylidene andrographolide] | – | (32) % | (20) % | – | (33) % | –
C=C1CCC2C(C)(CO)C(O)CCC2(C)C1CC=C1C(=O)OCC1Oc1cccnc1[N+](=O)[O-] (stereo not drawn) [6b15, (14β)-(2′-Nitro-pyridinyl-3′-oxy)andrographolide] | 29.3 ± 2.1 | (14) % | – | – | – | inhibition rate (%) SA (S. aureus; [2]): (41) %
C=C1CCC2C3(C)COC(C)(C)OC3CCC2(C)C1CC=C1C(=O)OCC1Oc1cccc(OC)c1 (stereo not drawn) [5b13, (14β)-(3′-Methoxy)phenoxy-3,19-acetonylidene andrographolide] | – | – | – | / (“/”represents no inhibition or lower than 10% inhibition rate at 250 μM of tested compound) | (17) % | inhibition rate SA (symbol /) (S. aureus): / (“/”represents no inhibition or lower than 10% inhibition rate at 250 μM of tested compound)
O=C(O)c1cn(C2CC2)c2cc(N3CCNCC3)c(F)cc2c1=O [Ciprofloxacin, reference compound] | – | – | – | – | – | IC50 (E. faecalis; Enterococcus faecalis): 2.3 ± 0.6 µM; IC50 (E. coli; Escherichia coli, 24 h, IC50 generated when inhibition at 250 μM was higher than 80%): 0.31 ± 0.06 µM; IC50 (S. aureus; Staphylococcus aureus, 24 h, IC50 generated when inhibition at 250 μM was higher than 80%): 0.4 ± 0.06 µM
C=C1CCC2C(C)(CO)C(O)CCC2(C)C1CC=C1C(=O)OCC1Oc1ccc(C(=O)OCC)cc1 (stereo not drawn) [6a9, (14α)-(4′-Carboxyethyl ester)phenoxy-andrographolide] | 38.3 ± 5.9 | – | – | / (“/”represents no inhibition or lower than 10% inhibition rate at 250 μM of tested compound) | – | inhibition rate SA (symbol /) (S. aureus): / (“/”represents no inhibition or lower than 10% inhibition rate at 250 μM of tested compound)
